Test results reported in patent US11814407B2, “Multiple coupling and oxidation method” (Roche Innovation Center Copenhagen A/S, priority 2017, dated 2023).
Entries after “also recorded” stand apart in the source; their conditions may differ.

How the values were obtained:
[1] = Solubility of oxazaphospholidine phosphoramidite monomers in solvent, visual examination; type: physicochemical; settings: for Solubility over 24 hours in MeCN with addition of pyridine: MeCN + 2.5% pyridine; for Solubility after 24 hours in MeCN: MeCN alone
Experimental: To a 1.5 mL vial was added 0.013 mmol of amidite after which the solid material was dissolved in 0.13 mL of solvent. Hereafter, the vial was capped, vortexed, and finally left at room temperature for 24 hours. Then, the dissolved material was visually examined regarding the solubility (FIG. 1). If the solution appeared cloudy or otherwise non-homogenous the solubility was set to “no”. If the solution appeared completely homogenous the solubility was set to “yes” (examination repeated after 24 hours).
Solubility of the following monomers was determined as per example 7.

[2] = Stability of amidite solutions by HPLC-MS (UV 254 nm, normalised to 0 hours); type: physicochemical
Experimental: Stability Determination Method: To complete the analysis the stability of the amidite was investigated using an Agilent 1100 series HPLC-MS with a gradient from 80% A (1% NH4OH in H2O) to 100% B (20% A in MeCN) and a Waters Xterra MS C18 2.1×100 mm column. The mass and UV peak of the mother compound was identified at 0 hours and at 24 hours. Hereafter, the relative stability compared to other by-products was reported by integrating the UV chromatogram (254 nm) and normalizing the area to the chromatogram recorded at 0 hours (FIG. 2).
To a 1.5 mL vial was added 0.013 mmol of amidite after which the solid material was dissolved in 0.13 mL of solvent (with and without Et3N, approximately 5-10 eq). Hereafter, the vial was capped, vortexed, and finally left at room temperature for 24 hours. To investigate the stability of the amidite an Agilent 1100 series HPLC-MS with a gradient from 80% A (1% NH4OH in H2O) to 100% B (20% A in MeCN) and a Waters Xterra MS C18 2.1×100 mm column was used. The mass and UV peak of the mother compound was identified at 0 hours and at 24 hours. Hereafter, the relative stability compared to other by-products was reported. This was again repeated after 48 hours.

COc1ccc(C(OCC2OC(n3cnc4c(NC(=O)c5ccccc5)ncnc43)CC2OP2OC(c3ccccc3)C3CCCN32)(c2ccccc2)c2ccc(OC)cc2)cc1 [D-DNA A]
Solubility over 24 hours in MeCN with addition of pyridine [1]: the solubility of the monomer is preserved
Solubility after 24 hours in MeCN [1]: not soluble

COc1ccc(C(OCC23COC(C(n4cnc5c(NC(=O)c6ccccc6)ncnc54)O2)C3OP2OC(c3ccccc3)C3CCCN32)(c2ccccc2)c2ccc(OC)cc2)cc1 [D-LNA A]
Solubility over 24 hours in MeCN with addition of pyridine [1]: the solubility of the monomer is preserved
Solubility after 24 hours in MeCN [1]: not soluble

COc1ccc(C(OCC2OC(n3cnc4c(NC(=O)c5ccccc5)ncnc43)CC2OP2OC(c3ccccc3)C3CCCN32)(c2ccccc2)c2ccc(OC)cc2)cc1 [L-DNA A]
Solubility over 24 hours in MeCN with addition of pyridine [1]: kept in solution; also recorded: the solubility of the monomer is preserved
Solubility after 24 hours in MeCN [1]: not sufficient to keep the monomer in solution; also recorded: not soluble

COc1ccc(C(OCC23COC(C(n4cnc5c(NC(=O)c6ccccc6)ncnc54)O2)C3OP2OC(c3ccccc3)C3CCCN32)(c2ccccc2)c2ccc(OC)cc2)cc1 [L-LNA A]
Stability in solution ([2]; MeCN + Et3N (approximately 5-10 eq), after 24 hours): completely stable
Stability in solution ([2]; MeCN + Et3N (approximately 5-10 eq), after 48 hours): the majority of the L-LNA A is preserved
Stability in solution ([2]; MeCN only, after 24 hours, room temperature): most of the L-LNA A was degraded
Stability in solution ([2]; MeCN only, after 48 hours, room temperature): completely degraded

COc1ccc(C(OCC23COC(C(n4cnc5c(=O)[nH]c(N=CN(C)C)nc54)O2)C3OP2OC(c3ccccc3)C3CCCN32)(c2ccccc2)c2ccc(OC)cc2)cc1 [L-LNA G-DMF]
Amidite left after 24 hours ([2]; DCM (best solvent), 24 hours, room temperature): 10%
Stability in the solvents where the monomer is soluble ([2]; MeCN:DCM, DMF, DMSO, NMP, DCM, DCE, Toluene, 24 hours): tremendous instability
Solubility in solvents ([1]; MeCN, MeCN:DCE, MeCN:Tol, MeCN:acetone, Dioxane, THF): unsoluble
Solubility in solvents ([1]; MeCN:DCM, DMF, DMSO, NMP, DCM, DCE, Toluene): soluble
Solubility in acetonitrile solvents ([1]; acetonitrile solvents): poorly soluble

COc1ccc(C(OC[C@@]23CO[C@@H]([C@H](n4cnc5c(=O)[nH]c(NC(=O)C(C)C)nc54)O2)[C@@H]3O[P@]2O[C@H](c3ccccc3)[C@@H]3CCCN32)(c2ccccc2)c2ccc(OC)cc2)cc1 [L-LNA-G-iBu]
Solubility in all solvents investigated ([1]; 12 different solvents): soluble in all solvents investigated
Soluble after: 24 h MeCN ([1]; 24 h, MeCN, 0.013 mmol amidite in 0.13 mL solvent, room temperature): no
